Test results from patent US8246966B2, “Trypanosome microsome system and uses thereof” (priority 2006, dated 2012).
“Also recorded” adds a separate entry of the source. Where two headings read alike, the source gives them in different places.

Legend:
[1] = tested on: T. brucei microsomes (TbRM); assay: Import of full length VSG—117 into TbRM with T. brucei cytosol (Example 10); assay type: biochemical, Trypanosoma brucei
Description: FIGS. 18A and 18B. MAL3-101, equisetin, and CJ-21,058 inhibit VSG translocation into TbRM. FIG. 18A presents the protocol used for import of VSG—117. In FIG. 18B, VSG—117 mRNA was translated in rabbit reticulocyte lysate with 1.5 equivalents T. brucei cytosol pretreated with MAL3-101 (3 μM), MAL3-51 (10 μM), CJ-21,058 (20 μM) or equisetin (50 μM)) for 60 minutes. The reaction mixtures received cycloheximide (50 μg/ml, final concentration) and were incubated with TbRM (one equivalent). After incubation at 37° C. for 60 minutes, reaction mixtures were transferred to an ice-water bath and treated with proteinase K (30 μg/ml, final concentration) for 60 minutes. Proteins were resolved by SDS-PAGE and detected by phosphorimaging. Lane 1 is VSG—117 incubated with TbRM; lane 2 is VSG—117 digested with proteinase K after incubation with TbRM; lane 3 is VSG—117 incubated with MAL3-101 in the presence of TbRM; lane 4 is VSG—117 and TbRM incubated with MAL3-101 and then digested with proteinase K; lane 5 is VSG—117 incubated with MAL3-51 and TbRM; lane 6 is VSG—117 incubated with TbRM in the presence of equisetin; lane 7 is VSG—117 incubated with ThRM; lane 8 is VSG—117 incubated with equisetin and digested with proteinase K; lane 9 is VSG—117 incubated with CJ-21,058 and TbRM; lane 10 is VSG—117 incubated with TbRM and CJ-21,058 and digested with proteinase K. For quantitation, each proteasedigested sample was compared to a control experiment containing the drug but without protease addition. Thus, lane 2 is compared with lane 1 while lane 4 is compared to lane 3, and so on.
Protein Import Into TbRM. Two μg of RNA encoding VSG—117 (or VSG_MVAT7) was translated in 30 μl of a reaction mixture containing 15 μl rabbit reticulocyte lysate, 60 μM amino acid mixture (-Met, -Cys), and 2.4 μCi [^35S]Promix. […] The gels were dried, and radioactive polypeptides were detected with a phosphorimager (Personal Molecular Imager FX, (BioRad). Data were quantified with QuantityOne software (BioRad), and graphs were plotted with DeltaGraph (Red Rock software). […]

HeLa cells = assay: HeLa cell viability, propidium iodide exclusion assay; assay type: cell-based, human
Description: HeLa cells, treated with DMSO, MAL3-101, MAL3-51, CJ-21,058 or equisetin, were subject to a propidium iodide viability assay and analyzed by flow cytometry.
HeLa cell line was maintained in RPMI-1640 supplemented with 10% bovine serum, 100 U/ml penicillin/streptomycin, and 2 mM L-glutamine at 37° C. in 5% CO2.
HeLa cell viability assays. Propidium iodide exclusion assay (reviewed in Steff et al., 2001, Cytometry; 45(4):237-43 and Wigg et al., 2003, Anal Biochem; 317(1):19-25) was used to determine HeLa cell viability after drug treatment. Cells were plated at 1×10^4 cells per well (96 well plate) with or without addition of test compounds for the stated time periods, as described for FIGS. 1-4. […] Adherent cells were rinsed with phosphate buffered saline (PBS), trypsinized (37° C. for 5 minutes), pelleted (2,000 g, 2 minutes), resuspended in PBS (500 μl) containing propidium iodide (1 μg/ml), DAPI [4′-6-Diamidino-2-phenylindole] (5 μg/ml) and analyzed by flow cytometry on a Dakocytomation CyAn without gating. Single fluorophore controls were acquired prior to the collection of the experimental data.

[2] = tested on: Bloodstream T. brucei CA427; assay: Bloodstream T. brucei cell culture drug susceptibility (Example 4); assay type: cell-based, Trypanosoma brucei; details: cultured bloodstream T. brucei
Description: Cell Culture. Bloodstream T. brucei cell culture and drug susceptibility studies were performed as previously described. Bloodstream T. brucei CA427 were cultured in HMI-9 media (Hirumi and Hirumi, 1994, Parasitol Today; 10(2):80-4) to a density of 10^6 cells/ml. Cells were seeded (500 μl of 4×10^4 cells/ml) to a 24-well plate and exposed to MAL3-101, CAM741, and NFI028 at listed concentrations (see figure legends) or an equal volume of DMSO. Cells were incubated at 37° C. and counted after 24 and 48 hours, using a hemocytometer.

C/C=C/C1C(C)=CC2CC(C)CCC2C1(C)/C(O)=C1/C(=O)C(CO)N(C)C1=O (centres unmarked) [CJ-21,058]
inhibition of import of VSG—117 into TbRM compared to DMSO control ([1]; CJ-21,058 (20 μM in FIG. 18B legend)): 70% | effect on human HeLa cells (HeLa cells): little effect

C/C=C/[C@@H]1C=C[C@@H]2C[C@H](C)CC[C@H]2[C@]1(C)/C(O)=C1/C(=O)[C@H](CO)N(C)C1=O [equisetin]
inhibition of VSG—117 translocation into TbRM ([1]; equisetin (50 μM in FIG. 18B legend)): 95% | effect on human HeLa cells (HeLa cells; concentrations that killed one hundred percent T. brucei (IC100)): little effect; also recorded: did not have discernible effects | HeLa cell viability (HeLa cells; equisetin 26 μM): neither CJ-21,058 (20 μM) nor equisetin (26 μM) decreased viability of HeLa cells

CCCCCCN(C(=O)CCCCCN1C(=O)NC(c2ccc(-c3ccccc3)cc2)C(C(=O)OCc2ccccc2)=C1C)C(C(=O)NCCCC)c1ccc(OCC(=O)OC)c(C(=O)OC)c1 (centres unmarked) [MAL3-101]
VSG—117 protected from proteinase K ([1]; MAL3-101 present (3 μM in FIG. 18B legend), DMSO approximately 80%): 13% | concentration killing all parasites [2]: 3 µM | IC50 ([2]; read-out: IG50, T. brucei growth): 1500 nM
